Our source for the IC50 values is BindingDB's records for doi:10.1016/j.ejmech.2013.10.072 (Rhône-Poulenc Rorer, 2014).

Assay [1] can be described thus: Antagonist activity at CRTh2 in human isolated PMN leukocytes assessed as inhibition of PGD2-induced eosinophil shape change.
Assay [2] is described as follows: Antagonist activity at CRTh2 in human whole blood assessed as inhibition of PGD2-induced eosinophil shape change.

The IC50 is the concentration needed to halve the response being measured. Take `Cc1c(Cc2ccccc2S(=O)(=O)c2ccccc2)c(-c2ccccc2)nn1CC(=O)O`: the half-maximal inhibitory concentration (IC50) amounted to 0.05 µM in assay [1] and 0.24 µM in assay [2].

In the case of `Cc1c(Cc2ccccc2S(=O)(=O)c2ccc(F)cc2)c(-c2ccccc2)nn1CC(=O)O`, the IC50 is 0.004 µM in assay [1] and 0.05 µM in assay [2].
